Results reported in patent publication US20230089867A1, “CYCLIC PENTAMER COMPOUNDS AS PROPROTEIN CONVERTASE SUBTILISIN/KEXIN TYPE 9 (PCSK9) INHIBITORS FOR THE TREATMENT OF METABOLIC DISORDER” (Novartis AG, priority 2018, published 2023).
pIC50: −log10 of the molar value.

Biological target: human PCSK9 (Homo sapiens, UniProt Q8NBP7)
Experiment: PCSK9 ligand binding TR-FRET assay (interference with binding of human PCSK9 to human LDLR)
Settings: for Max % inhibition: PCSK9 FRET assay, efficacy (Amax), 100% = 1 uM unlabeled human PCSK9, 0% = DMSO; for pIC50: TR-FRET, human PCSK9 Alexa Fluor 647 / human LDLR extracellular domain-Europium Kryptate, read-out: PCSK9 FRET Assay IC50
Procedure, shortened: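 Threefold compound dilutions were pre-incubated 30 min with PCSK9, after which 4 nM Europium Kryptate-tagged human LDLR ectodomain was added for a further 2 h.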

Chain of human PCSK9 (Q8NBP7 153-692): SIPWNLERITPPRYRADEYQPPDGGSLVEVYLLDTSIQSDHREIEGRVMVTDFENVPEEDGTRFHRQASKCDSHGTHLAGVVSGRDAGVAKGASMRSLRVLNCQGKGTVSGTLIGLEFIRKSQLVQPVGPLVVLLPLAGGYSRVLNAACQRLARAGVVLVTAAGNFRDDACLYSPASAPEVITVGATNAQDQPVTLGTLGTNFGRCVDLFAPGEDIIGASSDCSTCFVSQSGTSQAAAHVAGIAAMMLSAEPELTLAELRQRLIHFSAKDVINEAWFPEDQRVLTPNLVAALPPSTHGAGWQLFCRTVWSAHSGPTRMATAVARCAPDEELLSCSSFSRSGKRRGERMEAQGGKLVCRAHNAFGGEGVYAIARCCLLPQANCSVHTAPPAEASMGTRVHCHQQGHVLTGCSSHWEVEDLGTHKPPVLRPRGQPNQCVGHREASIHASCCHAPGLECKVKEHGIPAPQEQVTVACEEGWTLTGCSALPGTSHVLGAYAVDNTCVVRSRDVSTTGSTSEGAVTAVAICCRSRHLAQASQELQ
Chain of human PCSK9 (Q8NBP7 31-152 partner limits assumed): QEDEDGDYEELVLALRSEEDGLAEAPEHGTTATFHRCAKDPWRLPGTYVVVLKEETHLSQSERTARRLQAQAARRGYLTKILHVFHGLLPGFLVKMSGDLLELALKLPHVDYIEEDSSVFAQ

COC[C@@H]1NC(=O)[C@H](C)N(Cc2ccc(Cl)cc2Oc2ccc(-c3cnc(CN(C)C)n3C)cc2)C(=O)C[C@@H](OC)C(=O)N(C)[C@@H](C)CNC(=O)C[C@H](Cc2ccc(Cl)cc2)N(C)C1=O [Compound 159, (2S,5S,8S,13S,16R)-1-(4-chloro-2-(4-(2-((dimethylamino)methyl)-1-methyl-1H-imidazol-5-yl)phenoxy)benzyl)-8-(4-chlorobenzyl)-16-methoxy-5-(methoxymethyl)-2,7,13,14-tetramethyl-1,4,7,11,14-pentaazacyclooctadecane-3,6,10,15,18-pentaone]
Max % inhibition: 55.26%
pIC50: 7.13

C[C@H]1CNC(=O)C[C@H](Cc2ccc(Cl)cc2)N(C)C(=O)[C@H](CC(=O)N(C)C)NC(=O)[C@H](C)N(Cc2ccc(Cl)cc2Oc2ccc(-c3cnc(CN(C)C)n3C)cc2)C(=O)C[C@@H](Cc2ccccc2)C(=O)N1C [Compound 160, 2-((2S,5S,8S,13S,16R)-16-benzyl-1-(4-chloro-2-(4-(2-((dimethylamino)methyl)-1-methyl-1H-imidazol-5-yl)phenoxy)benzyl)-8-(4-chlorobenzyl)-2,7,13,14-tetramethyl-3,6,10,15,18-pentaoxo-1,4,7,11,14-pentaazacyclooctadecan-5-yl)-N,N-dimethylacetamide]
Max % inhibition: 91.45%
pIC50: 8.12

COC[C@@H]1NC(=O)[C@H](C)N(Cc2ccc(Cl)cc2Oc2ccc(-c3cnc(CN(C)C)n3C)cc2)C(=O)C[C@@H](C)C(=O)N(C)[C@@H](C)CNC(=O)C[C@H](Cc2ccc(Cl)cc2)N(C)C1=O [Compound 161, (2S,5S,8S,13S,16R)-1-(4-chloro-2-(4-(2-((dimethylamino)methyl)-1-methyl-1H-imidazol-5-yl)phenoxy)benzyl)-8-(4-chlorobenzyl)-5-(methoxymethyl)-2,7,13,14,16-pentamethyl-1,4,7,11,14-pentaazacyclooctadecane-3,6,10,15,18-pentaone]
Max % inhibition: 92.62%
pIC50: 7.83

COC[C@@H]1NC(=O)[C@H](C)N(Cc2ccc(Cl)cc2Oc2ccc(-c3cnc4n3CCN(C(=O)[C@H]3CCOC3)C4)cc2)C(=O)C[C@@H](Cc2ccccc2)C(=O)N(C)[C@@H](C)CNC(=O)C[C@H](Cc2ccc(Cl)cc2)N(C)C1=O [Compound 162, (2S,5S,8S,13S,16R)-16-benzyl-1-(4-chloro-2-(4-(7-((S)-tetrahydrofuran-3-carbonyl)-5,6,7,8-tetrahydroimidazo[1,2-a]pyrazin-3-yl)phenoxy)benzyl)-8-(4-chlorobenzyl)-5-(methoxymethyl)-2,7,13,14-tetramethyl-1,4,7,11,14-pentaazacyclooctadecane-3,6,10,15,18-pentaone]
Max % inhibition: 91.41%
pIC50: 8.54

COC[C@@H]1NC(=O)[C@H](C)N(Cc2ccc(Cl)cc2Oc2ccc(-n3cnc(C(=O)NC(C)C)c3C)cc2)C(=O)C[C@@H](Cc2ccccc2)C(=O)N(C)[C@@H](C)CNC(=O)C[C@H](Cc2ccc(Cl)cc2)N(C)C1=O [Compound 163, 1-(4-(2-(((2S,5S,8S,13S,16R)-16-benzyl-8-(4-chlorobenzyl)-5-(methoxymethyl)-2,7,13,14-tetramethyl-3,6,10,15,18-pentaoxo-1,4,7,11,14-pentaazacyclooctadecan-1-yl)methyl)-5-chlorophenoxy)phenyl)-N-isopropyl-5-methyl-1H-imidazole-4-carboxamide]
Max % inhibition: 84.60%
pIC50: 6.87

C[C@@H]1CC(=O)N(Cc2ccc(Cl)cc2Oc2ccc(-c3cnc(CN(C)C)n3C)cc2)[C@@H](C)C(=O)N[C@@H](CO)C(=O)N(C)[C@@H](Cc2ccc(Cl)cc2)CC(=O)N[C@H]2CCCC[C@@H]2N(C)C1=O [Compound 164, (4S,7S,10S,14R,16aS,20aS)-11-(4-chloro-2-(4-(2-((dimethylamino)methyl)-1-methyl-1H-imidazol-5-yl)phenoxy)benzyl)-4-(4-chlorobenzyl)-7-(hydroxymethyl)-5,10,14,16-tetramethylhexadecahydrobenzo[l][1,4,7,11,14]pentaazacyclooctadecine-2,6,9,12,15(3H)-pentaone]
Max % inhibition: 80.18%
pIC50: 8.44

COC[C@@H]1NC(=O)[C@H](C)N(Cc2ccc(Cl)cc2Oc2ccc(-c3cnc(CN4CCCC4)n3C)cc2)C(=O)C[C@@H](Cc2ccc(F)c(F)c2)C(=O)N(C)[C@@H](C)CNC(=O)C[C@H](Cc2ccc(Cl)cc2)N(C)C1=O [Compound 165, (2S,5S,8S,13S,16R)-1-(4-chloro-2-(4-(1-methyl-2-(pyrrolidin-1-ylmethyl)-1H-imidazol-5-yl)phenoxy)benzyl)-8-(4-chlorobenzyl)-16-(3,4-difluorobenzyl)-5-(methoxymethyl)-2,7,13,14-tetramethyl-1,4,7,11,14-pentaazacyclooctadecane-3,6,10,15,18-pentaone]
Max % inhibition: 92.29%
pIC50: 8.25

COC[C@@H]1NC(=O)[C@H](C)N(Cc2c(F)ccc(F)c2Oc2ccc(-c3cnc(CN(C)C)n3C)cc2)C(=O)C[C@@H](Cc2ccccc2)C(=O)N(C)[C@@H](C)CNC(=O)C[C@H](Cc2ccc(Cl)cc2)N(C)C1=O [Compound 166, (2S,5S,8S,13S,16R)-16-benzyl-8-(4-chlorobenzyl)-1-(2-(4-(2-((dimethylamino)methyl)-1-methyl-1H-imidazol-5-yl)phenoxy)-3,6-difluorobenzyl)-5-(methoxymethyl)-2,7,13,14-tetramethyl-1,4,7,11,14-pentaazacyclooctadecane-3,6,10,15,18-pentaone]
Max % inhibition: 96.70%
pIC50: 8.37

COC[C@@H]1NC(=O)[C@H](C)N(Cc2ccc(Cl)cc2Oc2ccc(-c3cnc(C(C)O)n3C)cc2)C(=O)C[C@@H](Cc2ccccc2)C(=O)N(C)[C@@H](C)CNC(=O)C[C@H](Cc2ccc(Cl)cc2)N(C)C1=O (stereo partly drawn) [Compound 167, (2S,5S,8S,13S,16R)-16-benzyl-1-(4-chloro-2-(4-(2-(1-hydroxyethyl)-1-methyl-1H-imidazol-5-yl)phenoxy)benzyl)-8-(4-chlorobenzyl)-5-(methoxymethyl)-2,7,13,14-tetramethyl-1,4,7,11,14-pentaazacyclooctadecane-3,6,10,15,18-pentaone]
Max % inhibition: 81.26%
pIC50: 8.74

COC[C@@H]1NC(=O)[C@H](C)N(Cc2c[nH]c(=O)cc2Oc2ccc(-c3cnc(CN(C)C)n3C)cc2)C(=O)C[C@@H](Cc2ccccc2)C(=O)N(C)[C@@H](C)CNC(=O)C[C@H](Cc2ccc(Cl)cc2)N(C)C1=O [Compound 168, (2S,5S,8S,13S,16R)-16-benzyl-8-(4-chlorobenzyl)-1-((4-(4-(2-((dimethylamino)methyl)-1-methyl-1H-imidazol-5-yl)phenoxy)-6-oxo-1,6-dihydropyridin-3-yl)methyl)-5-(methoxymethyl)-2,7,13,14-tetramethyl-1,4,7,11,14-pentaazacyclooctadecane-3,6,10,15,18-pentaone]
Max % inhibition: 85.66%
pIC50: 7.17

COC[C@@H]1NC(=O)[C@H](C)N(Cc2ccc(Cl)cc2Oc2ccc(-c3cnc(CN4CCCC4)n3C)cc2)C(=O)C[C@@H](Cc2ccccc2)C(=O)N(C)[C@@H](CCCCN)CNC(=O)C[C@H](Cc2ccc(Cl)cc2)N(C)C1=O.O=C(O)C(F)(F)F [Compound 169, (2S,5S,8S,13S,16R)-13-(4-aminobutyl)-16-benzyl-1-(4-chloro-2-(4-(1-methyl-2-(pyrrolidin-1-ylmethyl)-1H-imidazol-5-yl)phenoxy)benzyl)-8-(4-chlorobenzyl)-5-(methoxymethyl)-2,7,14-trimethyl-1,4,7,11,14-pentaazacyclooctadecane-3,6,10,15,18-pentaone trifluoroacetate]
Max % inhibition: 91.73%
pIC50: 8.89

C[C@H]1CNC(=O)C[C@H](Cc2ccc(Cl)cc2)N(C)C(=O)[C@H](COC(F)F)NC(=O)[C@H](C)N(Cc2ccc(Cl)cc2Oc2ccc(-c3cnc(CN(C)C)n3C)cc2)C(=O)C[C@@H](Cc2ccccc2)C(=O)N1C [Compound 170, (2S,5S,8S,13S,16R)-16-benzyl-1-(4-chloro-2-(4-(2-((dimethylamino)methyl)-1-methyl-1H-imidazol-5-yl)phenoxy)benzyl)-8-(4-chlorobenzyl)-5-((difluoromethoxy)methyl)-2,7,13,14-tetramethyl-1,4,7,11,14-pentaazacyclooctadecane-3,6,10,15,18-pentaone]
Max % inhibition: 102.49%
pIC50: 8.89

COC[C@@H]1NC(=O)[C@H](C)N(Cc2ccc(Cl)cc2Oc2ccc(-c3cnc4n3CCN(C(=O)[C@@H]3CCOC3)C4)cc2)C(=O)C[C@@H](Cc2ccccc2)C(=O)N(C)[C@@H](C)CNC(=O)C[C@H](Cc2ccc(Cl)cc2)N(C)C1=O [Compound 171, (2S,5S,8S,13S,16R)-16-benzyl-1-(4-chloro-2-(4-(7-((R)-tetrahydrofuran-3-carbonyl)-5,6,7,8-tetrahydroimidazo[1,2-a]pyrazin-3-yl)phenoxy)benzyl)-8-(4-chlorobenzyl)-5-(methoxymethyl)-2,7,13,14-tetramethyl-1,4,7,11,14-pentaazacyclooctadecane-3,6,10,15,18-pentaone]
Max % inhibition: 91.76%
pIC50: 8.51

COC[C@@H]1NC(=O)[C@H](C)N(Cc2ccc(Cl)cc2Oc2ccc(-c3cnc(CN(C)C)n3C)cc2)C(=O)C[C@@H](Cc2cccc[n+]2[O-])C(=O)N(C)[C@H]2CCCC[C@@H]2NC(=O)C[C@H](Cc2ccc(Cl)cc2)N(C)C1=O [Compound 172, 2-(((4S,7S,10S,14R,16aS,20aS)-11-(4-chloro-2-(4-(2-((dimethylamino)methyl)-1-methyl-1H-imidazol-5-yl)phenoxy)benzyl)-4-(4-chlorobenzyl)-7-(methoxymethyl)-5,10,16-trimethyl-2,6,9,12,15-pentaoxodocosahydrobenzo[l][1,4,7,11,14]pentaazacyclooctadecin-14-yl)methyl)pyridine 1-oxide]
Max % inhibition: 102.44%
pIC50: 8.85
